What is called Kb is the equilibrium dissociation constant of an antagonist, usually derived from a functional assay. Lower therefore signals higher antagonist affinity.

What all share (type): biochemical
In experiment [1] the target is T1, cloned human kappa opioid receptor (Homo sapiens, UniProt P41145).
T1 construct: expressed in transfected cells
Description: GTP-γ-S binding assay (SPA), antagonist mode, kappa. As to conditions: functional antagonist potency; membranes with cloned human kappa receptor; agonist U69593 300 nM; Cheng-Prusoff. On the procedure: (§1) The functional antagonist potency (Kb) of the sample compounds was determined using the GTPγS binding assay. GTPgS—based functional assays provide an in vitro measure of the activity of opioid agonists and antagonists. Opioid reference compounds or test compound are incubated with membrane homogenate from cells expressing the cloned human mu, kappa or delta opioid receptor and radiolabeled [35S]GTPgS. If the compound activates the opioid receptor, an increase in the binding of radiolabeled GTPgS is observed. […] These tests provide an in vitro measurement of the activity of the compound at human opioid receptors.
(§2) An SPA-based GTP-γ-S assay format was developed based on previous opioid (Emmerson et al., J. Pharm Exp Ther 278,1121,1996; Horng et al., Society for Neuroscience Abstracts, 434.6, 2000) and muscarinic (DeLapp et al., JPET 289, 946, 1999) assay formats. Membranes were resuspended in 20 mM HEPES, 100 mM NaCl, 5 mM MgCl2, 1 mM DTT, and 1 mM EDTA. Fifty (50) […] of GTP-γ-[35S], compound, membrane suspension (20 microgram/well), and wheat germ agglutinin coated SPA beads (1 mg/well) were added to clear bottom 96 well assay plates. GDP ([…]) was added to the membrane solution prior to addition to the assay plates. Plates were sealed and incubated for four hours at room temperature then placed in a refrigerator overnight to allow the beads to settle. Signal stability at 4° C. was determined to be >60 hours. Plates were warmed to room temperature and counted in a Wallac Microbeta scintillation counter. For antagonist assays, specific agonists were added at the following concentrations: (MOR) DAMGO 1 micromolar, (DOR) DPDPE 30 nM, (KOR) U69593 300 nM. Kb's were determined by Cheng-Prusoff equation (see Cheng and Prusoff, Biochem. Pharmacol. 22, 3099, 1973).
For orientation: GTPγS is a poorly hydrolysed GTP analogue; its binding reports G protein activation.

In experiment [2] the target is T2, cloned human mu opioid receptor (Homo sapiens, UniProt P35372).
T2 construct: expressed in transfected cells
Description: GTP-γ-S binding assay (SPA), antagonist mode, mu. As to conditions: functional antagonist potency; membranes with cloned human mu receptor; agonist DAMGO 1 micromolar; Cheng-Prusoff. On the procedure:
as §1, §2

Experiment [3] concerns the target T3, cloned human delta opioid receptor (Homo sapiens, UniProt P41143).
T3 construct: expressed in transfected cells
Description: GTP-γ-S binding assay (SPA), antagonist mode, delta. As to conditions: functional antagonist potency; membranes with cloned human delta receptor; agonist DPDPE 30 nM; Cheng-Prusoff. On the procedure: as §1, §2

T1 sequence (P41145 whole entry): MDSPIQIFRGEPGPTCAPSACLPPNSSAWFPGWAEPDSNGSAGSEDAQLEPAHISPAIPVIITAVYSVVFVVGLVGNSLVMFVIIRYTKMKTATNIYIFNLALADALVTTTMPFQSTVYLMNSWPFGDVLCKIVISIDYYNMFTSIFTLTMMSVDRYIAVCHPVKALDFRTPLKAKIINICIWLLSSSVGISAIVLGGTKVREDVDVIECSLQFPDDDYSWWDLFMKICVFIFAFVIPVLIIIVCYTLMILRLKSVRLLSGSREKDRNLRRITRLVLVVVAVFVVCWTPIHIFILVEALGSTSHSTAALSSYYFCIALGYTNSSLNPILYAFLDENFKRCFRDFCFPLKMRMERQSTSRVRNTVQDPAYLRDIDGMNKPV
T3 sequence (P41143 whole entry): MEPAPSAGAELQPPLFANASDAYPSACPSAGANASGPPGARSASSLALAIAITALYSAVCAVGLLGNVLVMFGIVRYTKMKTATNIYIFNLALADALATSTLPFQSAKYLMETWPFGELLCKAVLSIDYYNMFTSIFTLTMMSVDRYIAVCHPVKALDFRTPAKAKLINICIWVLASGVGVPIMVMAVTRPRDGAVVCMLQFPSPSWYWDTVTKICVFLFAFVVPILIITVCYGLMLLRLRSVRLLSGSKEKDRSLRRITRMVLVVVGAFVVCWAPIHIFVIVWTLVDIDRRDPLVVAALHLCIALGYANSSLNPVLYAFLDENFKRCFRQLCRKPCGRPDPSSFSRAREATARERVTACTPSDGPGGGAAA
T2 sequence (P35372 whole entry): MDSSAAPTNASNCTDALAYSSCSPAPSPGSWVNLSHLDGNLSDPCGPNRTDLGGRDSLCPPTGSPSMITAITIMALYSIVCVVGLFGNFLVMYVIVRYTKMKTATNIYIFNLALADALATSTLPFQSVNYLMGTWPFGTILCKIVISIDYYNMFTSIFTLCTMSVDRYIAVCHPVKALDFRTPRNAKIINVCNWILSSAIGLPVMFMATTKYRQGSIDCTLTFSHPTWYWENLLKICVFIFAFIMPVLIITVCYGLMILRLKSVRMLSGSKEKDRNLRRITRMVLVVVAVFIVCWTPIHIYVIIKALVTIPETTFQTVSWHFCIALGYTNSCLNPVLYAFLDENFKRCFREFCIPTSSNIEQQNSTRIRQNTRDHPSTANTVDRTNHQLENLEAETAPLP

As for `CCCCCNCc1ccc2c(c1)CCc1cc(C(N)=O)ccc1O2` [Example 5, 8-Pentylaminomethyl-10,11-dihydro-dibenzo[b,f]oxepine-2-carboxylic acid amide], the Kb in experiment [1] came to 4.9 nM; in experiment [2], 1.7 nM.
In the case of `CC(C)CCNCc1ccc2c(c1)CCc1cc(C(N)=O)ccc1O2` [Example 1, 8-[(3-Methyl-butylamino)-methyl]-10,11-dihydro-dibenzo[b,f]oxepine-2-carboxilic acid amide], the values for the Kb in experiment [3], in experiment [1] and in experiment [2] were 11 nM, 6.1 nM and 1.2 nM, respectively.
For the molecule `NC(=O)c1ccc2c(c1)CCc1cc(CNCCC3CCCC3)ccc1O2` [Example 14, 8-[(2-Cyclopentyl-ethylamino)-methyl]-10,11-dihydro-dibenzo[b,f]oxepine-2-carboxylic acid amide], the results for the Kb in experiment [3], in experiment [1] and in experiment [2] were 7 nM, 8.6 nM and 0.6 nM, respectively.
For `CCCCCCNCc1ccc2c(c1)CCc1cc(C(N)=O)ccc1O2` [Example 6, 8-Hexylaminomethyl-10,11-dihydro-dibenzo[b,f]oxepine-2-carboxylic acid amide], the Kb turned out to be 10.3 nM in experiment [3], 4.4 nM in experiment [1] and 0.7 nM in experiment [2].
Consider `CC(C)CNCc1ccc2c(c1)CCc1cc(C(N)=O)ccc1O2` [Example 2, 8-(Isobutylamino-methyl)-10,11-dihydro-dibenzo[b,f]oxepine-2-carboxylic acid amide], for which the Kb in experiment [1] was 29.8 nM; in experiment [2], 12 nM.
For the molecule `NC(=O)c1ccc2c(c1)CCc1cc(CNCCC3CCOCC3)ccc1O2` [Example 12, 8-{[2-(Tetrahydro-pyran-4-yl)-ethylamino]-methyl}-10,11-dihydro-dibenzo[b,f]oxepine-2-carboxylic acid amide], the Kb in experiment [3] is 2.1 nM; in experiment [1] it was 2.2 nM; in experiment [2], 0.7 nM.
The corresponding values for `NC(=O)c1ccc2c(c1)CCc1cc(CNCCc3cccs3)ccc1O2` [Example 4, 8-[(2-Thiophen-2-yl-ethylamino)-methyl]-10,11-dihydro-dibenzo[b,f]oxepine-2-carboxylic acid amide] are 7.1 nM, 12.6 nM and 0.9 nM.
For the molecule `CCOCCCNCc1ccc2c(c1)CCc1cc(C(N)=O)ccc1O2` [Example 17, 8-[(3-Ethoxy-propylamino)-methyl]-10,11-dihydro-dibenzo[b,f]oxepine-2-carboxylic acid amide], the Kb in experiment [3] turned out to be 26.7 nM; in experiment [1] it was 25.7 nM; in experiment [2], 2.1 nM.
The corresponding values for `CC(C)(C)CCNCc1ccc2c(c1)CCc1cc(C(N)=O)ccc1O2` [Example 13, 8-[(3,3-Dimethyl-butylamino)-methyl]-10,11-dihydro-dibenzo[b,f]oxepine-2-carboxylic acid amide] are 14.4 nM, 12.1 nM and 4 nM.
The corresponding values for `CC(C)CCCNCc1ccc2c(c1)CCc1cc(C(N)=O)ccc1O2` [Example 3, 8-[(4-Methyl-pentylamino)-methyl]-10,11-dihydro-dibenzo[b,f]oxepine-2-carboxylic acid amide] are 7.4 nM, 6.5 nM and 0.8 nM.

(Values after US7288543B2, “Opioid receptor antagonists” (Eli Lilly and Company, priority 2004, dated 2007).)
